According to patent US9827210B2, “Treatment or prophylaxis of a neurological or neuropsychiatric disorders via ocular administration” (Phovitreal Pty Ltd, priority 2007, dated 2017):

Tests used:
[1] = tested on: rats with experimental Parkinson's disease; experiment: 6-hydroxy dopamine model of Parkinson's disease in rats, intraocular or intravitreal injection; type: in vivo; settings: bilateral 6-hydroxy dopamine lesion, 2 μl of 10 mMol solution into vitreous humor of both eyes on days 2, 3 and 4 after surgery, versus PD+IOVeh (70% DMSO)
Description: At appropriate concentrations, the neurotoxin 6-hydroxy dopamine produces specific and permanent depletion of dopamine in the brain and more specifically of the nigro-striatal dopamine system (Ungerstedt, U. et al, Adv. Neurol., 5, 421, 1974; Willis, G. L. & Armstrong, S. A., Brain Res. Rev., 27, 177, 1998). Intracranial injections of 6-hydroxy dopamine were used to produce a model of Parkinson's disease (and schizophrenia). Bilateral lesions produced a vegetative, akinetic syndrome in which there is a lack of voluntary movement, hunched posture and body weight loss accompanied by a loss in the ability to eat and drink.
b) After preparatory surgery that permitted access to the brain, rats were induced with bilateral experimental Parkinson's disease by injection of the neurotoxin 6-hydroxy dopamine into the nigro-striatal dopamine system. On days 2, 3 and 4 after surgery a single 2 μl intraocular or intravitreal injection was made into the vitreous humor of both eyes. The solution injected was either a 10 mMol solution of ML-23 (PD+IODrug) or a 10 mMol solution of vehicle (PD+IOVeh). The vehicle used was 70% DMSO. For comparison, a control group was not made Parkinsonian but received intraocular or intravitreal injection of vehicle in the same volume as the experimental groups (C+IOVeh). […]

[2] = tested on: Sprague-Dawley rats pre-treated with dl-amphetamine; experiment: dl-amphetamine-induced psychosis in rats, intravitreal injection, motor tests; type: in vivo; settings: 2 μl of 12.5 μg/μl into vitreous humor after 5 days of 1 mg/kg dl-amphetamine i.p.; measured three hours after injection; versus 80% DMSO vehicle; FIG. 4
Experimental: Lesions to the brain dopamine systems in mammalian brain serve as models for various neuropsychiatric disorders. When drugs such as amphetamines are administered to animals for a certain period of time psychotic symptoms develop such as increased activity, agitation and decreased latency time to perform various motor tasks. In other words, opposite to those symptoms seen in Parkinson's disease, the time to perform various motor tasks decreased: they perform them quicker.
At appropriate concentrations, the addictive drug, dl-amphetamine (1 mg/kg) was injected intraperitoneally to produce psychosis and addiction in Sprague-Dawley rats. After 5 days of such treatment each animal was tested for their level of activity in a computerized activity chamber and on three motor tests. On the day after completion of the injections half the animals received a 2 μl injection of haloperidol (12.5 μg/μl) into the vitreous humor, just in front of the retina. The other half of the animals received a 2 μl injection of vehicle (80% DMSO solution) into the vitreous humor. The effects of such injections on various parameters of movement, such as the latency to ambulate and the latency to retract a front paw, were measured three hours after animals received their intravitreal injection. […]

Compound | horizontal movement ([1]; FIG. 1) | ability to retract/move the front limb ([1]; FIG. 2) | latency to ambulate from a prescribed area [2] | latency to retract an elevated limb [2]
COc1ccc2[nH]cc(CCNc3ccc([N+](=O)[O-])cc3[N+](=O)[O-])c2c1 [ML-23] | better horizontal movement | better performance on the ability to move the front limb |  | 
O=C(CCCN1CCC(O)(c2ccc(Cl)cc2)CC1)c1ccc(F)cc1 [haloperidol] |  |  | increased | increased
